This passage reports TGI results from PubChem BioAssay (NCI).

Some test systems named below: SK-MEL-2 melanoma; HS 578T breast; HCT-116 colon; BT-549 breast; RXF 393 renal; TK-10 renal; UACC-62 melanoma; HOP-62 NSCLC; M14 melanoma; HCT-15 colon; UO-31 renal; SF-539 CNS; A498 renal; SK-MEL-5 melanoma; SK-MEL-28 melanoma; NCI-H226 lung; MOLT-4 leukemia; CAKI-1 renal; SNB-75 CNS; MDA-N.
Holding throughout (test): inhibition of tumour cell growth, NCI panel, 48 h

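Test compounds were applied to cells in 96-well plates for 48 hours at 5 doses. At the TGI there is no net growth.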

With `CC1=CCC(C)=Nc2nc3ccccc3n21`, the TGI in the assay on SK-MEL-2 melanoma, in the assay with HS 578T breast, with HCT-116 colon, in the assay on BT-549 breast, in the assay with RXF 393 renal and with TK-10 renal was above 100 µM throughout. In addition, the TGI in the assay with UACC-62 melanoma is above 100 µM; in the assay with HOP-62 NSCLC, above 100 µM; in the assay with M14 melanoma, above 100 µM; with HCT-15 colon, above 100 µM; with UO-31 renal, 58.9 µM; in the assay with SF-539 CNS, above 100 µM. Besides, the TGI in the assay with A498 renal, in the assay with SK-MEL-5 melanoma, in the assay on SK-MEL-28 melanoma, with NCI-H226 lung, in the assay with MOLT-4 leukemia and in the assay on CAKI-1 renal was above 100 µM throughout.
For the compound `COc1ccc(/C(Cl)=C(\C=O)c2ccc(OC)c(OC)c2)cc1`, the TGI was 76.6 µM with SK-MEL-2 melanoma; above 100 µM in the assay on TK-10 renal; above 100 µM with UACC-62 melanoma; above 100 µM with M14 melanoma; above 100 µM in the assay on HCT-15 colon; above 100 µM in the assay on UO-31 renal. Further, the TGI was 58.5 µM in the assay on SF-539 CNS; 98.8 µM with A498 renal; above 100 µM with SK-MEL-5 melanoma; 58.7 µM with SNB-75 CNS; above 100 µM in the assay on SK-MEL-28 melanoma; above 100 µM with NCI-H226 lung. The TGI with MOLT-4 leukemia and in the assay with CAKI-1 renal was above 100 µM in each case.
Take `Cc1ccc(-c2n[nH]c(=O)n2/N=C\c2ccc([N+](=O)[O-])cc2)cc1`: the TGI in the assay on SK-MEL-2 melanoma, in the assay with HS 578T breast, with HCT-116 colon, with BT-549 breast, in the assay on RXF 393 renal and in the assay on TK-10 renal was above 100 µM each time. Moreover, the TGI in the assay with UACC-62 melanoma, with HOP-62 NSCLC, with M14 melanoma, in the assay with HCT-15 colon, with UO-31 renal and in the assay on SF-539 CNS was above 100 µM throughout. For the same compound, the TGI with A498 renal, in the assay on SK-MEL-5 melanoma, in the assay on SNB-75 CNS, with SK-MEL-28 melanoma, in the assay with NCI-H226 lung and in the assay on MOLT-4 leukemia was above 100 µM throughout. Moreover, the TGI in the assay on CAKI-1 renal is above 100 µM.
With `COc1ccc2c(c1)C(=O)OCCC2`, the TGI in the assay on SK-MEL-2 melanoma, in the assay on HS 578T breast, with HCT-116 colon, in the assay with BT-549 breast, with RXF 393 renal and with TK-10 renal was above 100 µM throughout. Moreover, the TGI in the assay with UACC-62 melanoma, in the assay on HOP-62 NSCLC, with M14 melanoma, with HCT-15 colon, in the assay with UO-31 renal and with SF-539 CNS was above 100 µM each time. Moreover, the TGI in the assay with A498 renal, with SK-MEL-5 melanoma, in the assay on SNB-75 CNS, in the assay on SK-MEL-28 melanoma, in the assay on NCI-H226 lung and in the assay on MOLT-4 leukemia was above 100 µM throughout. Further, in the assay on CAKI-1 renal, the TGI was above 100 µM.
Consider `COC(=O)C1(C(=O)OC)C/C(C)=C(/C)SCCCS1`, for which the TGI with SK-MEL-2 melanoma, in the assay with HS 578T breast, in the assay with HCT-116 colon, with RXF 393 renal, with TK-10 renal and with UACC-62 melanoma was above 100 µM throughout. Further, the TGI in the assay on HOP-62 NSCLC, in the assay with M14 melanoma, in the assay with HCT-15 colon, in the assay on MDA-N, in the assay with UO-31 renal and with SF-539 CNS was above 100 µM each time. Moreover, the TGI with SK-MEL-5 melanoma, in the assay with SNB-75 CNS, in the assay on SK-MEL-28 melanoma, with NCI-H226 lung, in the assay with MOLT-4 leukemia and in the assay on CAKI-1 renal was above 100 µM each time.
Turning to `COc1ccc(OC)c(C(Cc2ccnc3ccccc23)Cc2ccnc3ccccc23)c1`, the TGI in the assay on SK-MEL-2 melanoma, in the assay on HS 578T breast, with HCT-116 colon, with BT-549 breast, in the assay on RXF 393 renal and with TK-10 renal was above 10 µM in each case. Further, the TGI in the assay with UACC-62 melanoma, in the assay on HOP-62 NSCLC, in the assay with M14 melanoma, with HCT-15 colon, with UO-31 renal and in the assay with SF-539 CNS was above 10 µM throughout. Further, the TGI in the assay with A498 renal, in the assay on SK-MEL-5 melanoma, in the assay with SNB-75 CNS, in the assay with SK-MEL-28 melanoma, with NCI-H226 lung and in the assay on MOLT-4 leukemia was above 10 µM each time. This compound returned a TGI with CAKI-1 renal above 10 µM.
For `O=C1NP23(OCCO2)Oc2ccccc2C3(C(F)(F)F)O1` (stereo not drawn), the TGI in the assay on SK-MEL-2 melanoma, with HCT-116 colon, in the assay with TK-10 renal, in the assay with UACC-62 melanoma, with M14 melanoma and in the assay on HCT-15 colon was above 100 µM each time. Moreover, the TGI with SF-539 CNS, in the assay with SK-MEL-5 melanoma, in the assay with SNB-75 CNS, in the assay on SK-MEL-28 melanoma, with NCI-H226 lung and in the assay with MOLT-4 leukemia was above 100 µM throughout.
Turning to `COc1cc(N=Nc2cccc(S(=O)(=O)O)c2)ccc1N=Nc1ccc(/C=C/c2ccc(-n3on3-c3ccc(/C=C/c4ccc(N=Nc5ccc(N=Nc6cccc(S(=O)(=O)O)c6)cc5OC)cc4S(=O)(=O)O)c(S(=O)(=O)O)c3)cc2S(=O)(=O)O)c(S(=O)(=O)O)c1`, the TGI with SK-MEL-2 melanoma, in the assay on HCT-116 colon, in the assay on RXF 393 renal, with UACC-62 melanoma, with HOP-62 NSCLC and in the assay with HCT-15 colon was above 100 µM in each case. Moreover, the TGI with UO-31 renal, in the assay on SF-539 CNS, with A498 renal, in the assay on SK-MEL-5 melanoma, in the assay with SNB-75 CNS and in the assay with SK-MEL-28 melanoma was above 100 µM each time. Further, the TGI in the assay on NCI-H226 lung and with MOLT-4 leukemia was above 100 µM in each case.
